Biological target: cortisol synthase (CYP11B1) (Macaca fascicularis, UniProt A0A2K5ULY1)
Experiment: Inhibition of Cortisol Synthesis
Assay type: biochemical, cynomolgus monkey
Details: cynomolgus adrenal gland mitochondria; 150 units of CYP11B1, 11-deoxycortisol as substrate, cortisol measured as product
Method in brief: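 Cynomolgus adrenal mitochondria as enzyme source (1 unit = 1 pmol product/h); 150 units CYP11B1 with 11-deoxycortisol substrate in 100 mM potassium phosphate pH 7.4, 1% DMSO, started with 1 mM NADPH, 90 min at 37 °C. Cortisol quantified by mass spectrometry; no-NADPH blank as 0%, no-compound as 100% activity.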

Q: `NC(=O)c1cccc2c1OCC(c1cncc(C3(O)CCC3)c1)O2` (single isomer, unassigned) [Cpd 26A, 2-[5-(1-Hydroxy-cyclobutyl)-pyridin-3-yl]-2,3-dihydro-benzo[1,4]dioxine-5-carboxylic acid amide] was tested. Which IC50 did it give?
A: The IC50 was 1.8 µM.

Q: For `N#Cc1cccc2c1OCC(c1cncc(CN3CCOC3=O)c1)O2` (single isomer, unassigned) [Cpd 34B, 2-[5-(2-Oxo-oxazolidin-3-ylmethyl)-pyridin-3-yl]-2,3-dihydro-benzo[1,4]dioxine-5-carbonitrile], which IC50 is on record?
A: The IC50 was > 30 µM.

Q: For `NC(=O)c1cccc2c1OCC(c1cccnc1)O2` (single isomer, unassigned) [Cpd 4B, 2-Pyridin-3-yl-2,3-dihydro-benzo[1,4]dioxine-5-carboxylic acid amide], which IC50 is on record?
A: Its IC50 is 2.5 µM.

Q: For `CN(C)C(=O)COCc1cncc(C2COc3c(C#N)cccc3O2)c1` (single isomer, unassigned) [Cpd 42A, 2-[5-(5-Cyano-2,3-dihydro-benzo[1,4]dioxin-2-yl)-pyridin-3-ylmethoxy]-N,N-dimethyl-acetamide], which IC50 is on record?
A: Its IC50 is 18 µM.

Q: `Cc1ccncc1C1COc2c(cccc2C(N)=O)O1` (single isomer, unassigned) [Cpd 23A, 2-(4-Methyl-pyridin-3-yl)-2,3-dihydro-benzo[1,4]dioxine-5-carboxylic acid amide] was tested. Which IC50 did it give?
A: The IC50 was 1.4 µM.

Q: How did the IC50 turn out when `CC(C)C(=O)N1CCC(Oc2cncc(C3COc4c(cccc4C(N)=O)O3)c2)CC1` (single isomer, unassigned) [Cpd 48B, 2-[5-(1-isobutyryl-piperidin-4-yloxy)-pyridin-3-yl]-2,3-dihydro-benzo[1,4]dioxine-5-carboxylic acid amide] was run?
A: Its IC50 is 0.24 µM.

Q: For `NC(=O)c1cccc2c1OCC(c1cncc(C(O)C(F)(F)F)c1)O2` (single isomer, unassigned) [Cpd 49AB, 2-[5-(2,2,2-Trifluoro-1-hydroxy-ethyl)-pyridin-3-yl]-2,3-dihydro-benzo[1,4]dioxine-5-carboxylic acid amide], which IC50 is on record?
A: Its IC50 is 1.1 µM.

Q: Which IC50 does the source give for `NC(=O)c1cccc2c1OCC(c1cncc(F)c1)O2` (single isomer, unassigned) [Cpd 51A, 2-(5-Fluoro-pyridin-3-yl)-2,3-dihydro-benzo[1,4]dioxine-5-carboxylic acid amide] here?
A: The IC50 was 1.2 µM.

Q: Which IC50 does the source give for `N#Cc1cccc2c1OCC(c1cncc(C3(O)CCOCC3)c1)O2` (single isomer, unassigned) [Cpd 50B, 2-[5-(4-Hydroxy-tetrahydro-pyran-4-yl)-pyridin-3-yl]-2,3-dihydro-benzo[1,4]dioxine-5-carbonitrile] here?
A: The IC50 was 3.3 µM.

Q: With `N#Cc1cccc2c1OCC(c1cncc(CC(=O)N3CCOCC3)c1)O2` (single isomer, unassigned) [Cpd 43A, 2-[5-(2-Morpholin-4-yl-2-oxo-ethyl)-pyridin-3-yl]-2,3-dihydro-benzo[1,4]dioxine-5-carbonitrile] as the compound, how does the IC50 read?
A: Its IC50 is 22 µM.

Q: Which IC50 does the source give for `C[C@H](O)c1c(F)cncc1C1COc2c(cccc2C(N)=O)O1` (single isomer, unassigned) [Cpd 56B] here?
A: Its IC50 is 14 µM.

Q: For `Cc1c(F)cncc1C1COc2c(cccc2C(N)=O)O1` (single isomer, unassigned) [Cpd 21A, 2-(5-Fluoro-4-methyl-pyridin-3-yl)-2,3-dihydro-benzo[1,4]dioxine-5-carboxylic acid amide], which IC50 is on record?
A: Its IC50 is 2.6 µM.

Q: With `NC(=O)c1cccc2c1OCC(c1cncc(C(O)C(F)(F)F)c1)O2` (single isomer, unassigned) [Cpd 49AA, 2-[5-(2,2,2-Trifluoro-1-hydroxy-ethyl)-pyridin-3-yl]-2,3-dihydro-benzo[1,4]dioxine-5-carboxylic acid amide] as the compound, how does the IC50 read?
A: Its IC50 is 3.2 µM.

Q: With `N#Cc1cccc2c1OCC(c1cncc(CC(=O)N3CC[C@@H](O)C3)c1)O2` (single isomer, unassigned) [Cpd 55B] as the compound, how does the IC50 read?
A: Its IC50 is > 30 µM.

Q: For `NC(=O)c1cccc2c1OCC(c1cncc(CN3CCCCS3(=O)=O)c1)O2` (single isomer, unassigned) [Cpd 3B, 2-[5-(1,1-Dioxo-1λ^6,-[1,2]thiazinan-2-ylmethyl)-pyridin-3-yl]-2,3-dihydro-benzo[1,4]dioxine-5-carboxylic acid amide], which IC50 is on record?
A: The IC50 was 5.6 µM.

Q: With `NC(=O)c1cccc2c1OCC(c1cncc(CN3CCOC3=O)c1)O2` (single isomer, unassigned) [Cpd 31A, 2-[5-(2-Oxo-oxazolidin-3-ylmethyl)-pyridin-3-yl]-2,3-dihydro-benzo[1,4]dioxine-5-carboxylic acid amide] as the compound, how does the IC50 read?
A: Its IC50 is > 30 µM.

Q: `NC(=O)c1cccc2c1OCC(c1cncc(CNC(=O)C3CC3)c1)O2` (single isomer, unassigned) [Cpd 14A, 2-{5-[(Cyclopropanecarbonyl-amino)-methyl]-pyridin-3-yl}-2,3-dihydro-benzo[1,4]dioxine-5-carboxylic acid amide.] was tested. Which IC50 did it give?
A: Its IC50 is 12 µM.

Q: For `CS(=O)(=O)COc1cncc(C2COc3c(C#N)cccc3O2)c1` (single isomer, unassigned) [Cpd 44A, 2-(5-Methanesulfonylmethoxy-pyridin-3-yl)-2,3-dihydro-benzo[1,4]dioxine-5-carbonitrile], which IC50 is on record?
A: The IC50 was 2.2 µM.

Q: For `NC(=O)c1cccc2c1OCC(c1cncc(O[C@@H]3CCOC3)c1)O2` (single isomer, unassigned) [Cpd 46A], which IC50 is on record?
A: The IC50 was 7 µM.

Q: Which IC50 does the source give for `C[C@H](O)c1c(F)cncc1C1COc2c(cccc2C(N)=O)O1` (single isomer, unassigned) [Cpd 56A] here?
A: Its IC50 is 14 µM.

Q: For `CS(=O)(=O)Cc1cncc(C2COc3c(C#N)cccc3O2)c1` (single isomer, unassigned) [Cpd 37B, 2-(5-Methanesulfonylmethyl-pyridin-3-yl)-2,3-dihydro-benzo[1,4]dioxine-5-carbonitrile], which IC50 is on record?
A: Its IC50 is 8 µM.

Q: `Cc1c(C(C)O)cncc1C1COc2c(cccc2C(N)=O)O1` (single isomer, unassigned) [Cpd 27A, 2-[5-(1-Hydroxy-ethyl)-4-methyl-pyridin-3-yl]-2,3-dihydro-benzo[1,4]dioxine-5-carboxylic acid amide] was tested. Which IC50 did it give?
A: The IC50 was 2.8 µM.

Q: With `CN1C(=O)CCC1c1cncc(C2COc3c(cccc3C(N)=O)O2)c1` (single isomer, unassigned) [Cpd 6BA, 2-[5-(-1-Methyl-5-oxo-pyrrolidin-2-yl)-pyridin-3-yl]-2,3-dihydro-benzo[1,4]dioxine-5-carboxylic acid amide] as the compound, how does the IC50 read?
A: The IC50 was > 30 µM.

Q: Which IC50 does the source give for `CC(=O)N1CC[C@@H](Oc2cncc(C3COc4c(cccc4C(N)=O)O3)c2)C1` (single isomer, unassigned) [Cpd 18B] here?
A: The IC50 was 1.1 µM.

Q: With `N#Cc1cccc2c1OCC(c1cncc(-c3ccc(S(N)(=O)=O)cc3)c1)O2` (single isomer, unassigned) [Cpd 40A, 4-[5-(5-Cyano-2,3-dihydro-benzo[1,4]dioxin-2-yl)-pyridin-3-yl]-benzenesulfonamide] as the compound, how does the IC50 read?
A: The IC50 was > 30 µM.

Q: How did the IC50 turn out when `CCS(=O)(=O)NC(c1cncc(C2COc3c(cccc3C(N)=O)O2)c1)C1CC1` (single isomer, unassigned) [Cpd 60AA] was run?
A: The IC50 was > 30 µM.

Q: How did the IC50 turn out when `NC(=O)c1cccc2c1OCC(c1cncc(CN3CCOCC3=O)c1)O2` (single isomer, unassigned) [Cpd 15A, 2-[5-(3-Oxo-morpholin-4-ylmethyl)-pyridin-3-yl]-2,3-dihydro-benzo[1,4]dioxine-5-carboxylic acid amide] was run?
A: The IC50 was 15 µM.

Q: Which IC50 does the source give for `NC(=O)c1cccc2c1OCC(c1cncc(CO)c1)O2` (single isomer, unassigned) [Cpd 20B, 2-(5-Hydroxymethyl-pyridin-3-yl)-2,3-dihydro-benzo[1,4]dioxine-5-carboxylic acid amide] here?
A: Its IC50 is 6.8 µM.

Q: Which IC50 does the source give for `CN(C)C(=O)COCc1cncc(C2COc3c(C#N)cccc3O2)c1` (single isomer, unassigned) [Cpd 42B, 2-[5-(5-Cyano-2,3-dihydro-benzo[1,4]dioxin-2-yl)-pyridin-3-ylmethoxy]-N,N-dimethyl-acetamide] here?
A: The IC50 was 1.3 µM.

Q: `NC(=O)c1cccc2c1OCC(c1cncc(CN3CCOC3=O)c1)O2` (single isomer, unassigned) [Cpd 31B, 2-[5-(2-Oxo-oxazolidin-3-ylmethyl)-pyridin-3-yl]-2,3-dihydro-benzo[1,4]dioxine-5-carboxylic acid amide] was tested. Which IC50 did it give?
A: The IC50 was > 30 µM.

Q: With `N#Cc1cccc2c1OCC(c1cncc(CC(=O)N3CC[C@@H](O)C3)c1)O2` (single isomer, unassigned) [Cpd 55A] as the compound, how does the IC50 read?
A: The IC50 was 11 µM.

Q: How did the IC50 turn out when `N#Cc1cccc2c1OCC(c1cncc(CN3CCOC3=O)c1)O2` (single isomer, unassigned) [Cpd 34A, 2-[5-(2-Oxo-oxazolidin-3-ylmethyl)-pyridin-3-yl]-2,3-dihydro-benzo[1,4]dioxine-5-carbonitrile] was run?
A: Its IC50 is 8.5 µM.

Q: Which IC50 does the source give for `Cc1cncc(C2COc3c(cccc3C(N)=O)O2)c1` (single isomer, unassigned) [Cpd 59B, 2-(5-Methyl-pyridin-3-yl)-2,3-dihydro-benzo[1,4]dioxine-5-carboxylic acid amide] here?
A: The IC50 was 0.89 µM.

Q: With `CCOc1cncc(C2COc3c(cccc3C(N)=O)O2)c1` (single isomer, unassigned) [Cpd 45B, 2-(5-ethoxy-pyridin-3-yl)-2,3-dihydro-benzo[1,4]dioxine-5-carboxylic acid amide] as the compound, how does the IC50 read?
A: Its IC50 is 0.28 µM.

Q: With `CS(=N)(=O)Cc1cncc(C2COc3c(C#N)cccc3O2)c1` (single isomer, unassigned) [Cpd 62BB, 2-(5-{[imino(methyl)oxo-λ^6-sulfanyl]methyl}pyridin-3-yl)-2,3-dihydro-1,4-benzodioxine-5-carbonitrile] as the compound, how does the IC50 read?
A: Its IC50 is 18 µM.

Q: For `Cc1cncc(C2COc3c(cccc3C(N)=O)O2)c1` (single isomer, unassigned) [Cpd 59A, 2-(5-Methyl-pyridin-3-yl)-2,3-dihydro-benzo[1,4]dioxine-5-carboxylic acid amide], which IC50 is on record?
A: Its IC50 is 1.1 µM.

Q: `CCS(=O)(=O)NC(c1cncc(C2COc3c(cccc3C(N)=O)O2)c1)C1CC1` (single isomer, unassigned) [Cpd 60BA] was tested. Which IC50 did it give?
A: Its IC50 is > 30 µM.

Q: For `CN1C(=O)CCC1c1cncc(C2COc3c(cccc3C(N)=O)O2)c1` (single isomer, unassigned) [Cpd 6AB, 2-[5-(-1-Methyl-5-oxo-pyrrolidin-2-yl)-pyridin-3-yl]-2,3-dihydro-benzo[1,4]dioxine-5-carboxylic acid amide], which IC50 is on record?
A: Its IC50 is 10 µM.

From patent publication US9745289B2, “Aldosterone synthase inhibitors” (Boehringer Ingelheim International GmbH, priority 2014, dated 2017)
